Reference: patent US11986471B2, “Compounds and methods of use” (Tango Therapeutics, Inc., priority 2018, dated 2024)
pIC50: −log10 of the molar value.

Legend:
PRMT5 [1] = biological target: T1, PRMT5 (Homo sapiens, UniProt O14744); assay: PRMT5 IC50 assay in the presence of SAM as cofactor; type: biochemical
T1 construct: purchased Viva (custom protein)
Summary of the method: (§1)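 Each compound is tested on PRMT5 in the presence of SAM, of MTA, and without any cofactor. Ki values are then back-calculated using fixed factors of 1.5 (SAM) and 13.5 (MTA), and the two Ki values are compared as a ratio.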

PRMT5 [2] = biological target: T1, PRMT5; assay: PRMT5 IC50 assay with no cofactor; type: biochemical
Summary of the method: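 Three cofactor conditions are run: SAM-bound, MTA-bound and cofactor-free enzyme. IC50 is read from each; for the SAM and MTA arms it is divided by 1.5 and 13.5 respectively to give Ki.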

PRMT5 [3] = biological target: T1, PRMT5; assay: PRMT5 IC50 assay in the presence of MTA as cofactor; type: biochemical; settings: for pIC50: PRMT5, MTA as cofactor; for SAM/MTA Ratio: ratio between the Ki in the presence of SAM and the Ki in the presence of MTA
Summary of the method: as §1

HAP1 MTAP-intact = assay: SDMA in-cell western assay, HAP1 MTAP-intact cell line; type: cell-based; settings: Homo sapiens
Summary of the method: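 Cells from two matched HAP1 lines, MTAP-null and MTAP-expressing at endogenous levels, are treated with compound. SDMA is then quantified by in-cell western and an IC50 is calculated for each line.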

HAP1 MTAP-deleted = assay: SDMA in-cell western assay, HAP1 MTAP-deleted cell line; type: cell-based; settings: for pIC50: Homo sapiens, HAP1 MTAP-deleted cell line; for MTAP Intact/Deleted Ratio: IC50 ratio HAP1 MTAP-intact / HAP1 MTAP-deleted
Summary of the method: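 MTAP-null HAP1 cells, the deleted member of an isogenic pair with endogenously MTAP-expressing HAP1, are treated with compound. SDMA is then quantified by in-cell western and an IC50 is calculated.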

T1 sequence (O14744 whole entry): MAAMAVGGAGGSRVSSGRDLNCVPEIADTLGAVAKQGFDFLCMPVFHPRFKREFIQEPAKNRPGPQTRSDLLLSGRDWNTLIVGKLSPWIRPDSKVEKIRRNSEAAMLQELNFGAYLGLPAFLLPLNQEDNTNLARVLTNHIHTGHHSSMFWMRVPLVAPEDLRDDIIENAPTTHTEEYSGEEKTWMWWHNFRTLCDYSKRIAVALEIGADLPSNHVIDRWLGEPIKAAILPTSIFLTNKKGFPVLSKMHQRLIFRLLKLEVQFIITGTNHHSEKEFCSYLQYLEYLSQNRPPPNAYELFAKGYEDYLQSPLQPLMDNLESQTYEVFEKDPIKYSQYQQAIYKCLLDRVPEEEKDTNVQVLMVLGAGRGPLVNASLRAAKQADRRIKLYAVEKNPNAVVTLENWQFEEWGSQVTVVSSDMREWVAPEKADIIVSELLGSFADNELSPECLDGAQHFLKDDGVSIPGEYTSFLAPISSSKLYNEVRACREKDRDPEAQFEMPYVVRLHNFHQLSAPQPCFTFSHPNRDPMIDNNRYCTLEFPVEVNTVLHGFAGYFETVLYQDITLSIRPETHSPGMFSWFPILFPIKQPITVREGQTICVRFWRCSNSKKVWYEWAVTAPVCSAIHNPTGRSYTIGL
T1 sequence (Q9BQA1 whole entry partner): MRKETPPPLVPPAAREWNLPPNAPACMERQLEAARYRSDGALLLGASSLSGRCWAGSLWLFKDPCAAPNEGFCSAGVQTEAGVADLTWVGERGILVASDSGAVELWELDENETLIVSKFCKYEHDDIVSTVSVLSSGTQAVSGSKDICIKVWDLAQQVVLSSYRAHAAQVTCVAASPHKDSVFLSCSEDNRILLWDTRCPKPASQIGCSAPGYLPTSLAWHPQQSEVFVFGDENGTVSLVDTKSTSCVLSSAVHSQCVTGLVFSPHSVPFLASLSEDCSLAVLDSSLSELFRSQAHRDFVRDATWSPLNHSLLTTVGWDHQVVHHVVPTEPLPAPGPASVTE

Row | pIC50 (PRMT5 [1]) | pIC50 (PRMT5 [2]) | pIC50 (PRMT5 [3]) | pIC50 (HAP1 MTAP-intact) | pIC50 (HAP1 MTAP-deleted) | SMILES | SAM/MTA Ratio (PRMT5 [3]) | MTAP Intact/Deleted Ratio (HAP1 MTAP-deleted)
1 | 5.30 to 6.30 | ≤ 5.30 | 6.30 to 7.30 | ≤ 5.00 | ≤ 5.00 | CO[C@H]1CC[C@H](Nc2cc(C(=O)NC[C@H](O)CN3CCc4c(ccc(OCc5cnco5)c4C)C3)ncn2)CC1 [Compound 572, N-[(2S)-2-hydroxy-3-{5-methyl-6-[(1,3-oxazol-5-yl)methoxy]-1,2,3,4-tetrahydroisoquinolin-2-yl}propyl]-6-{[(1r,4r)-4-methoxycyclohexyl]amino}pyrimidine-4-carboxamide] | A (a Ki ratio greater than or equal to 10 fold between the Ki in the presence of SAM and the Ki in the presence of MTA) | C* (an IC50 ratio of less than 3 fold between the IC50 in the HAP1 MTAP-intact cell line and the HAP1 MTAP-deleted cell line)
2 | 6.30 to 7.30 | ≤ 5.30 | 6.30 to 7.30 | ≤ 5.00 | 5.00 to 6.00 | CC(=O)N1CC(Nc2cc(C(=O)NC[C@H](O)CN3CCc4c(ccc(OCc5ocnc5C)c4C)C3)nc(N3CCOCC3)n2)C1 [Compound 574, 6-[(1-acetylazetidin-3-yl)amino]-N-[(2S)-2-hydroxy-3-{5-methyl-6-[(4-methyl-1,3-oxazol-5-yl)methoxy]-1,2,3,4-tetrahydroisoquinolin-2-yl}propyl]-2-(morpholin-4-yl)pyrimidine-4-carboxamide] | A (a Ki ratio greater than or equal to 10 fold between the Ki in the presence of SAM and the Ki in the presence of MTA) | C* (an IC50 ratio of less than 3 fold between the IC50 in the HAP1 MTAP-intact cell line and the HAP1 MTAP-deleted cell line)
3 | 6.30 to 7.30 | ≤ 5.30 | 6.30 to 7.30 | ≤ 5.00 | 5.00 to 6.00 | CC(=O)N1CC(Nc2cc(C(=O)NC[C@H](O)CN3CCc4c(ccc(OCc5ocnc5C)c4C)C3)nc(C(C)C)n2)C1 [Compound 575, (S)-6-((1-acetylazetidin-3-yl)amino)-N-(2-hydroxy-3-(5-methyl-6-((4-methyloxazol-5-yl)methoxy)-3A-dihydroisoquinolin-2(1H)-yl)propyl)-2-isopropylpyrimidine-4-carboxamide] | A (a Ki ratio greater than or equal to 10 fold between the Ki in the presence of SAM and the Ki in the presence of MTA) | B* (an IC50 ratio greater than or equal to 3 fold but lower than 10 fold between the IC50 in the HAP1 MTAP-intact cell line and the HAP1 MTAP-deleted cell line)
4 | 6.30 to 7.30 | 5.30 to 6.30 | 6.30 to 7.30 | 5.00 to 6.00 | 5.00 to 6.00 | CC(=O)N1CCC(Nc2cc(C(=O)NC[C@H](O)CN3CCc4cc(OCc5ocnc5C)c(F)cc4C3)ncn2)CC1 [Compound 576, 6-[(1-acetyl-4-piperidyl)amino]-N-[(2S)-3-[7-fluoro-6-[(4-methyloxazol-5-yl)methoxy]-3N-dihydro-1H-isoquinolin-2-yl]-2-hydroxy-propyl]pyrimidine-4-carboxamide] | A (a Ki ratio greater than or equal to 10 fold between the Ki in the presence of SAM and the Ki in the presence of MTA) | B* (an IC50 ratio greater than or equal to 3 fold but lower than 10 fold between the IC50 in the HAP1 MTAP-intact cell line and the HAP1 MTAP-deleted cell line)
5 | 6.30 to 7.30 | 5.30 to 6.30 | 6.30 to 7.30 | 5.00 to 6.00 | 5.00 to 6.00 | COc1ccc(C(=O)N2CCc3cc(C(=O)NC[C@H](O)CN4CCc5cc(OCc6ocnc6C)c(F)cc5C4)ccc3C2)cc1 [Compound 577, N-[(2S)-3-[7-fluoro-6-[(4-methyloxazol-5-yl)methoxy]-3N-dihydro-1H-isoquinolin-2-yl]-2-hydroxy-propyl]-2-(4-methoxybenzoyl)-3N-dihydro-1H-isoquinoline-6-carboxamide] | A (a Ki ratio greater than or equal to 10 fold between the Ki in the presence of SAM and the Ki in the presence of MTA) | B* (an IC50 ratio greater than or equal to 3 fold but lower than 10 fold between the IC50 in the HAP1 MTAP-intact cell line and the HAP1 MTAP-deleted cell line)
6 | 6.30 to 7.30 | 5.30 to 6.30 | 6.30 to 7.30 | 5.00 to 6.00 | 5.00 to 6.00 | Cc1ncoc1COc1cc2c(cc1F)CN(C[C@@H](O)CNC(=O)c1ccc3c(c1)CCN(C(=O)c1ccc(Br)cc1)C3)CC2 [Compound 578, 2-(4-bromobenzoyl)-N-[(2S)-3-[7-fluoro-6-[(4-methyloxazol-5-yl)methoxy]-3,4-dihydro-1H-isoquinolin-2-yl]-2-hydroxy-propyl]-3,4-dihydro-1H-isoquinoline-6-carboxamide] | A (a Ki ratio greater than or equal to 10 fold between the Ki in the presence of SAM and the Ki in the presence of MTA) | B* (an IC50 ratio greater than or equal to 3 fold but lower than 10 fold between the IC50 in the HAP1 MTAP-intact cell line and the HAP1 MTAP-deleted cell line)
7 | 6.30 to 7.30 | 6.30 to 7.30 | 6.30 to 7.30 | 5.00 to 6.00 | > 6.00 | CC(=O)N1CC(Nc2cc(C(=O)NC[C@H](O)CN3CCc4cc(OCc5ocnc5C)c(F)cc4C3)nc(N3CCCCC3)n2)C1 [Compound 579, 6-[(1-acetylazetidin-3-yl)amino]-N-[(2S)-3-[7-fluoro-6-[(4-methyloxazol-5-yl)methoxy]-3,4-dihydro-1H-isoquinolin-2-yl]-2-hydroxy-propyl]-2-(1-piperidyl)pyrimidine-4-carboxamide] | A (a Ki ratio greater than or equal to 10 fold between the Ki in the presence of SAM and the Ki in the presence of MTA) | A* (an IC50 ratio greater than or equal to 10 fold between the IC50 in the HAP1 MTAP-intact cell line and the HAP1 MTAP-deleted cell line)
8 | 6.30 to 7.30 | ≤ 5.30 | 6.30 to 7.30 | 5.00 to 6.00 | 5.00 to 6.00 | Cc1ncoc1COc1ccc2c(c1)CCN(C[C@@H](O)CNC(=O)c1ccnc(Nc3cccnc3)c1)C2 [Compound 581, (S)—N-(2-hydroxy-3-(6-((4-methyloxazol-5-yl)methoxy)-3,4-dihydroisoquinolin-2(1H)-yl)propyl)-2-(pyridin-3-ylamino)isonicotinamide] | A (a Ki ratio greater than or equal to 10 fold between the Ki in the presence of SAM and the Ki in the presence of MTA) | B* (an IC50 ratio greater than or equal to 3 fold but lower than 10 fold between the IC50 in the HAP1 MTAP-intact cell line and the HAP1 MTAP-deleted cell line)
9 | 6.30 to 7.30 | 5.30 to 6.30 | 6.30 to 7.30 | 5.00 to 6.00 | > 6.00 | COCCN(C)c1cc(C(=O)NC[C@H](O)CN2CCc3cc(OCc4ocnc4C)ccc3C2)cc(NC2CCN(C(C)=O)CC2)n1 [Compound 582] | A (a Ki ratio greater than or equal to 10 fold between the Ki in the presence of SAM and the Ki in the presence of MTA) | A* (an IC50 ratio greater than or equal to 10 fold between the IC50 in the HAP1 MTAP-intact cell line and the HAP1 MTAP-deleted cell line)
10 | 6.30 to 7.30 | 5.30 to 6.30 | 6.30 to 7.30 | ≤ 5.00 | 5.00 to 6.00 | CC(=O)N1CC(Nc2cc(C(=O)NC[C@H](O)CN3CCc4cc(OCc5cnco5)ccc4C3)nc(N3CCOCC3)n2)C1 [Compound 583] | A (a Ki ratio greater than or equal to 10 fold between the Ki in the presence of SAM and the Ki in the presence of MTA) | C* (an IC50 ratio of less than 3 fold between the IC50 in the HAP1 MTAP-intact cell line and the HAP1 MTAP-deleted cell line)
11 | 6.30 to 7.30 | 6.30 to 7.30 | 6.30 to 7.30 | ≤ 5.00 | 5.00 to 6.00 | CC(=O)N1CCC(Nc2cc(C(=O)NC[C@H](O)CN3CCc4cc(OCc5ocnc5C)ccc4C3)cc(N3CCN(C)CC3)n2)CC1 [Compound 584, 2-[(1-acetylpiperidin-4-yl)amino]-N-[(2S)-2-hydroxy-3-{6-[(4-methyl-1,3-oxazol-5-yl)methoxy]-1,2,3,4-tetrahydroisoquinolin-2-yl}propyl]-6-(4-methylpiperazin-1-yl)pyridine-4-carboxamide] | A (a Ki ratio greater than or equal to 10 fold between the Ki in the presence of SAM and the Ki in the presence of MTA) | B* (an IC50 ratio greater than or equal to 3 fold but lower than 10 fold between the IC50 in the HAP1 MTAP-intact cell line and the HAP1 MTAP-deleted cell line)
12 | 6.30 to 7.30 | 5.30 to 6.30 | 6.30 to 7.30 | ≤ 5.00 | 5.00 to 6.00 | Cc1c(OCc2cnco2)ccc2c1CCN(C[C@@H](O)CNC(=O)c1ccnc(NC3CN(C(=O)C4CCC4)C3)c1)C2 [Compound 586, (S)-2-((1-(cyclobutanecarbonyl)azetidin-3-yl)amino)-N-(2-hydroxy-3-(5-methyl-6-(oxazol-5-ylmethoxy)-3N-dihydroisoquinolin-2(1H)-yl)propyl)isonicotinamide] | A (a Ki ratio greater than or equal to 10 fold between the Ki in the presence of SAM and the Ki in the presence of MTA) | B* (an IC50 ratio greater than or equal to 3 fold but lower than 10 fold between the IC50 in the HAP1 MTAP-intact cell line and the HAP1 MTAP-deleted cell line)
